Drawing on patent publication US20250179066A1, “ZWITTERIONIC ANTIBACTERIAL COMPOUNDS” (Hoffmann-La Roche Inc., priority 2022, published 2025), this text covers IC90 for 15 molecules.

Structures can show the parent of a compound that is named as a salt.

By IC90 is commonly meant the concentration at which the effect reaches the 90% level.

In one assay the test system is Acinetobacter baumannii ATCC17961. Nature of the assay: Antimicrobial susceptibility testing: 90% growth inhibitory concentration (IC90) determination. In kind it is cell-based. The conditions noted are these: 90% growth inhibitory concentration against Acinetobacter baumannii ATCC17961, Iso-Sensitest broth, OD 600 nm over 16 h; read-out: ATCC 17961 IC90. Here is the method:
The in vitro antimicrobial activity of the compounds was determined according to the following procedure: The assay used a 10-points Iso-Sensitest broth medium to measure quantitatively the in vitro activity of the compounds against Acinetobacter baumannii ATCC17961. Stock compounds in DMSO were serially twofold diluted (e.g. range from 10 to 0.0195 μM final concentration) in 384 wells microtiter plates and inoculated with 49 μL the bacterial suspension in Iso-Sensitest medium to have a final cell concentration of ˜5×10^(5) CFU/mL in a final volume/well of 50 μL/well. Microtiter plates were incubated at 35±2° C. Bacterial cell growth was determined with the measurement of optical density at λ=600 nm each min over a time course of 16 h. Growth inhibition was calculated during the logarithmic growth of the bacterial cells with determination of the concentration inhibiting 50% (IC50) and 90% (IC90) of the growth. Table 1 provides the 90% growth inhibitory concentrations (IC90) in micromoles per liter of the compounds of present invention obtained against the strain Acinetobacter baumannii ATCC17961.
As to `Cn1c(-c2cn(-c3ccc(NCCN)cn3)nc2C(F)(F)F)cnc1C(=O)Nc1ccc(C(=O)N2CCN(C(=O)[C@H]3CC[N@+](CC(=O)O)(CC4CNC4)CC3)CC2)c(Cl)c1` [Example 10, cis-2-[4-[4-[4-[[5-[1-[5-(2-Aminoethylamino)-2-pyridyl]-3-(trifluoromethyl)pyrazol-4-yl]-1-methyl-imidazole-2-carbonyl]amino]-2-chloro-benzoyl]piperazine-1-carbonyl]-1-(azetidin-3-ylmethyl)piperidin-1-ium-1-yl]acetic Acid.1:1 2,2,2-trifluoroacetic Acid.1:1 2,2,2-trifluoroacetate], the 90% effect concentration (IC90) came to 170 nM. Same read-out and setting: as for `Cn1c(-c2cn(-c3ccc(N)cn3)nc2C(F)(F)F)cnc1C(=O)Nc1ccc(C(=O)N2CCN(C(=O)CCC[N+](CCCCN)(CCCCN)CC(=O)O)CC2)c(Cl)c1` [Example 20, bis(4-aminobutyl)-[4-[4-[4-[[5-[1-(5-amino-2-pyridyl)-3-(trifluoromethyl)pyrazol-4-yl]-1-methyl-imidazole-2-carbonyl]amino]-2-chloro-benzoyl]piperazino]-4-keto-butyl]-(carboxymethyl)ammonium. 1:1 2,2,2-trifluoroacetic acid. 1:1 2,2,2-trifluoroacetate], the figure is 300 nM.

Still in this assay, the particulars now being: Acinetobacter baumannii, ATCC17961, 16 h, 90% growth inhibitory concentration against Acinetobacter baumannii ATCC17961, Iso-Sensitest broth, OD 600 nm over 16 h; read-out: ATCC 17961 IC90.
With `Cn1c(-c2cn(-c3ccc(NCC4CC4(F)F)cn3)nc2C(F)(F)F)cnc1C(=O)Nc1ccc(C(=O)N2CCN(C(=O)C3CC[N+](CC(=O)O)(CC4CNC4)CC3)CC2)c(Cl)c1` (stereo not drawn) [Example 6, 2-[1-(azetidin-3-ylmethyl)-4-[4-[2-chloro-4-[[5-[1-[5-[(2,2-difluorocyclopropyl)methylamino]-2-pyridyl]-3-(trifluoromethyl)pyrazol-4-yl]-1-methyl-imidazole-2-carbonyl]amino]benzoyl]piperazine-1-carbonyl]piperidin-1-ium-1-yl]acetic acid. 1:1 2,2,2-trifluoroacetate], the IC90 came to 690 nM. Same read-out and setting: as for `Cn1c(-c2cn(-c3ccc(N)nc3)nc2C(F)(F)F)cnc1C(=O)Nc1ccc(C(=O)N2CCN(C(=O)C3CC[N+](CC(=O)O)(CC4CNC4)CC3)CC2)c(Cl)c1` (stereo not drawn) [Example 7, 2-[4-[4-[4-[[5-[1-(6-amino-3-pyridyl)-3-(trifluoromethyl)pyrazol-4-yl]-1-methyl-imidazole-2-carbonyl]amino]-2-chloro-benzoyl]piperazine-1-carbonyl]-1-(azetidin-3-ylmethyl)piperidin-1-ium-1-yl]acetic acid. 1:1 2,2,2-trifluoroacetate], the figure is 1480 nM; as for `Cn1c(-c2cn(-c3ccc(NCCN)nc3)nc2C(F)(F)F)cnc1C(=O)Nc1ccc(C(=O)N2CCN(C(=O)C3CC[N+](CC(=O)O)(CC4CNC4)CC3)CC2)c(Cl)c1` (stereo not drawn) [Example 8, 2-[4-[4-[4-[[5-[1-[6-(2-aminoethylamino)-3-pyridyl]-3-(trifluoromethyl)pyrazol-4-yl]-1-methyl-imidazole-2-carbonyl]amino]-2-chloro-benzoyl]piperazine-1-carbonyl]-1-(azetidin-3-ylmethyl)piperidin-1-ium-1-yl]acetic acid. 1:1 2,2,2-trifluoroacetate], 1550 nM; as for `Cn1c(-c2cn(-c3ccc4[nH]ccc4n3)nc2C(F)(F)F)cnc1C(=O)Nc1ccc(C(=O)N2CCN(C(=O)CCC[N+](CCCCN)(CCCCN)CC(=O)O)CC2)c(Cl)c1` [Example 9, Bis(4-aminobutyl)-(carboxymethyl)-[4-[4-[2-chloro-4-[[1-methyl-5-[1-(1H-pyrrolo[3,2-b]pyridin-5-yl)-3-(trifluoromethyl)pyrazol-4-yl]imidazole-2-carbonyl]amino]benzoyl]piperazino]-4-keto-butyl]ammonium.1:1 2,2,2-trifluoroacetic Acid. 1:1 2,2,2-trifluoroacetate], 100 nM. Same read-out and setting: in the case of `Cn1c(-c2cn(-c3ccc(N)cc3F)nc2C(F)(F)F)cnc1C(=O)Nc1ccc(C(=O)N2CCN(C(=O)CCC[N+](CCCCN)(CCCCN)CC(=O)O)CC2)c(Cl)c1` [Example 11, bis(4-aminobutyl)-[4-[4-[4-[[5-[1-(4-amino-2-fluoro-phenyl)-3-(trifluoromethyl)pyrazol-4-yl]-1-methyl-imidazole-2-carbonyl]amino]-2-chloro-benzoyl]piperazino]-4-keto-butyl]-(carboxymethyl)ammonium. 1:1 2,2,2-trifluoroacetic acid. 1:1 2,2,2-trifluoroacetate] it was 170 nM; in that of `Cn1c(-c2cn(-c3ccc(NCCN)cn3)nc2C(F)(F)F)cnc1C(=O)Nc1ccc(C(=O)N2CCN(C(=O)C3CC[N+](CC(=O)O)(CC4CNC4)CC3)CC2)c(Cl)c1` (stereo not drawn) [Example 12, 2-[4-[4-[4-[[5-[1-[5-(2-aminoethylamino)-2-pyridyl]-3-(trifluoromethyl)pyrazol-4-yl]-1-methyl-imidazole-2-carbonyl]amino]-2-chloro-benzoyl]piperazine-1-carbonyl]-1-(azetidin-3-ylmethyl)piperidin-1-ium-1-yl]acetic acid. 1:1 2,2,2-trifluoroacetic acid. 1:1 2,2,2-trifluoroacetate], 180 nM; in that of `Cn1c(-c2cn(-c3ccc4[nH]ccc4n3)nc2C(F)(F)F)cnc1C(=O)Nc1ccc(C(=O)N2CCN(C(=O)CCC[N+](CCCN)(CCCN)CC(=O)O)CC2)c(Cl)c1` [Example 13, bis(3-aminopropyl)-(carboxymethyl)-[4-[4-[2-chloro-4-[[1-methyl-5-[1-(1H-pyrrolo[3,2-b]pyridin-5-yl)-3-(trifluoromethyl)pyrazol-4-yl]imidazole-2-carbonyl]amino]benzoyl]piperazino]-4-keto-butyl]ammonium. 1:1 2,2,2-trifluoroacetic acid. 1:1 2,2,2-trifluoroacetate], 200 nM. Still for that read-out and setting: as for `Cn1c(-c2cn(-c3cc4[nH]ccc4cn3)nc2C(F)(F)F)cnc1C(=O)Nc1ccc(C(=O)N2CCN(C(=O)[C@H]3CC[N@+](CC(=O)O)(CC4CNC4)CC3)CC2)c(Cl)c1` [Example 14, cis-2-[1-(azetidin-3-ylmethyl)-4-[4-[2-chloro-4-[[1-methyl-5-[1-(1H-pyrrolo[3,2-c]pyridin-6-yl)-3-(trifluoromethyl)pyrazol-4-yl]imidazole-2-carbonyl]amino]benzoyl]piperazine-1-carbonyl]piperidin-1-ium-1-yl]acetic acid. 1:1 2,2,2-trifluoroacetate], the figure is 200 nM; as for `Cn1c(-c2cn(-c3ccc(NCCCN)cn3)nc2C(F)(F)F)cnc1C(=O)Nc1ccc(C(=O)N2CCN(C(=O)[C@H]3CC[N@+](CC(=O)O)(CC4CNC4)CC3)CC2)c(Cl)c1` [Example 15, cis-2-[4-[4-[4-[[5-[1-[5-(3-aminopropylamino)-2-pyridyl]-3-(trifluoromethyl)pyrazol-4-yl]-1-methyl-imidazole-2-carbonyl]amino]-2-chloro-benzoyl]piperazine-1-carbonyl]-1-(azetidin-3-ylmethyl)piperidin-1-ium-1-yl]acetic acid. 1:1 2,2,2-trifluoroacetic acid. 1:1 2,2,2-trifluoroacetate], 210 nM. Take `Cn1c(-c2cn(-c3ccc(N)cc3F)nc2C(F)(F)F)cnc1C(=O)Nc1ccc(C(=O)N2CCN(C(=O)[C@H]3CC[N@+](CC(=O)O)(CC4CNC4)CC3)CC2)c(Cl)c1` [Example 16, cis-2-[4-[4-[4-[[5-[1-(4-amino-2-fluoro-phenyl)-3-(trifluoromethyl)pyrazol-4-yl]-1-methyl-imidazole-2-carbonyl]amino]-2-chloro-benzoyl]piperazine-1-carbonyl]-1-(azetidin-3-ylmethyl)piperidin-1-ium-1-yl]acetic acid. 1:1 2,2,2-trifluoroacetate]: the 90% effect concentration (IC90) worked out at 210 nM. The same measure, in the same setting: in the case of `Cn1c(-c2cn(-c3ccc(N)cc3F)nc2C(F)(F)F)cnc1C(=O)Nc1ccc(C(=O)N2CCN(C(=O)C3CC[N+](CC(=O)O)(CC4CNC4)CC3)CC2)c(Cl)c1` (stereo not drawn) [Example 17, 2-[4-[4-[4-[[5-[1-(4-amino-2-fluoro-phenyl)-3-(trifluoromethyl)pyrazol-4-yl]-1-methyl-imidazole-2-carbonyl]amino]-2-chloro-benzoyl]piperazine-1-carbonyl]-1-(azetidin-3-ylmethyl)piperidin-1-ium-1-yl]acetic acid. 1:1 2,2,2-trifluoroacetate] it was 240 nM. Same read-out and setting: in the case of `Cn1c(-c2cn(-c3ccc4[nH]ccc4n3)nc2C(F)(F)F)cnc1C(=O)Nc1ccc(C(=O)N2CCN(C(=O)C3CC[N+](CC(=O)O)(CC4CNC4)CC3)CC2)c(Cl)c1` (stereo not drawn) [Example 18, 2-[1-(azetidin-3-ylmethyl)-4-[4-[2-chloro-4-[[1-methyl-5-[1-(1H-pyrrolo[3,2-b]pyridin-5-yl)-3-(trifluoromethyl)pyrazol-4-yl]imidazole-2-carbonyl]amino]benzoyl]piperazine-1-carbonyl]piperidin-1-ium-1-yl]acetic acid. 1:1 formate] it was 260 nM; in that of `C[C@H](N)CNc1ccc(-n2cc(-c3cnc(C(=O)Nc4ccc(C(=O)N5CCN(C(=O)C6CC[N+](CC(=O)O)(CC7CNC7)CC6)CC5)c(Cl)c4)n3C)c(C(F)(F)F)n2)nc1` (stereo partly drawn) [Example 19, 2-[4-[4-[4-[[5-[1-[5-[[(2S)-2-Aminopropyl]amino]-2-pyridyl]-3-(trifluoromethyl)pyrazol-4-yl]-1-methyl-imidazole-2-carbonyl]amino]-2-chloro-benzoyl]piperazine-1-carbonyl]-1-(azetidin-3-ylmethyl)piperidin-1-ium-1-yl]acetic Acid.1:1 formic Acid.1:1 formate], 260 nM.
